Experiment: mn = molality of the nth substance listed, in mol/kg
Conditions: for surface tension liquid-gas: Ring tensiometer; for viscosity / speed of sound / mass density: 100 kPa, Liquid; for viscosity: Capillary tube (Ostwald / Ubbelohde) method; for speed of sound: Frequency=3 MHz, Single path-length method; for mass density: Vibrating tube method

C1N2CN3CN1CN(C2)C3 [1,3,5,7-tetraazaadamantane] + O
Conditions | mass density [kg/m3] | speed of sound [m/s] | surface tension liquid-gas [mN/m] | viscosity [mPa·s]
293.15 K, m1 = 0.207 | 1004.3 | 1493.6 | 69.2 | 1.075
293.15 K, m1 = 0.425 | 1010.5 | 1504.9 | 67.4 | 1.168
293.15 K, m1 = 0.654 | 1016.6 | 1516.5 | 66.2 | 1.287
293.15 K, m1 = 0.897 | 1022.9 | 1528.8 | 65.4 | 1.419
293.15 K, m1 = 1.164 | 1029.5 | 1541.8 | 64.8 | 1.579
293.15 K, m1 = 1.449 | 1036.1 | 1555.9 | 64.4 | 1.711
293.15 K, m1 = 1.748 | 1042.9 | 1569.3 | 64 | 1.911
293.15 K, m1 = 2.068 | 1049.6 | 1583.3 | 63.7 | 2.142
293.15 K, m1 = 2.412 | 1056.3 | 1597.1 | 63.5 | 2.477
293.15 K, m1 = 2.779 | 1063.3 | 1611.8 | 63.3 | 2.777
293.15 K, m1 = 3.181 | 1070.4 | 1626.9 | 63.2 | 3.217
293.15 K, m1 = 3.617 | 1077.6 | 1642.5 | 63.1 | 3.698
293.15 K, m1 = 4.088 | 1084.9 | 1658.4 | 63 | 4.214
293.15 K, m1 = 4.609 | 1092.3 | 1674.7 | 62.9 | 4.991
293.15 K, m1 = 5.155 | 1099.8 | 1691.4 | 62.9 | 5.869
303.15 K, m1 = 0.207 | 1001.6 | 1519 | 67.5 | 0.88
303.15 K, m1 = 0.425 | 1007.7 | 1529.4 | 66.1 | 0.942
303.15 K, m1 = 0.654 | 1013.8 | 1539.3 | 65 | 1.025
303.15 K, m1 = 0.897 | 1019.9 | 1550 | 64.2 | 1.085
303.15 K, m1 = 1.164 | 1026.4 | 1561.1 | 63.5 | 1.193
303.15 K, m1 = 1.449 | 1032.9 | 1573.6 | 62.9 | 1.309
303.15 K, m1 = 1.748 | 1039.4 | 1585 | 62.5 | 1.472
303.15 K, m1 = 2.068 | 1046 | 1597.4 | 62.2 | 1.631
303.15 K, m1 = 2.412 | 1052.9 | 1609.3 | 61.9 | 1.875
303.15 K, m1 = 2.779 | 1059.7 | 1622.1 | 61.7 | 2.094
303.15 K, m1 = 3.181 | 1066.6 | 1635.2 | 61.5 | 2.402
303.15 K, m1 = 3.617 | 1073.6 | 1648.7 | 61.4 | 2.743
303.15 K, m1 = 4.088 | 1080.8 | 1662.4 | 61.3 | 3.092
303.15 K, m1 = 4.609 | 1088 | 1676.5 | 61.2 | 3.635
303.15 K, m1 = 5.155 | 1095 | 1690.9 | 61.2 | 4.21
313.15 K, m1 = 0.207 | 998 | 1538 | 66.3 | 0.718
313.15 K, m1 = 0.425 | 1004.1 | 1546.6 | 64.7 | 0.761
313.15 K, m1 = 0.654 | 1010.1 | 1555.4 | 63.5 | 0.806
313.15 K, m1 = 0.897 | 1016.1 | 1565 | 62.8 | 0.87
313.15 K, m1 = 1.164 | 1022.5 | 1574.7 | 62.1 | 0.936
313.15 K, m1 = 1.449 | 1028.9 | 1585.8 | 61.5 | 1.017
313.15 K, m1 = 1.748 | 1035.4 | 1595.6 | 61.1 | 1.158
313.15 K, m1 = 2.068 | 1041.8 | 1606.6 | 60.7 | 1.26
313.15 K, m1 = 2.412 | 1048.3 | 1616 | 60.5 | 1.441
313.15 K, m1 = 2.779 | 1055 | 1627.1 | 60.3 | 1.597
313.15 K, m1 = 3.181 | 1061.8 | 1638.5 | 60.2 | 1.82
313.15 K, m1 = 3.617 | 1068.7 | 1650.1 | 60.1 | 2.063
313.15 K, m1 = 4.088 | 1075.6 | 1661.9 | 60 | 2.296
313.15 K, m1 = 4.609 | 1082.7 | 1674 | 59.9 | 2.687
313.15 K, m1 = 5.155 | 1089.8 | 1687.2 | 59.9 | 3.084
323.15 K, m1 = 0.207 | 993.9 | 1549.2 | 65.1 | 0.596
323.15 K, m1 = 0.425 | 999.7 | 1557.4 | 63.4 | 0.635
323.15 K, m1 = 0.654 | 1005.6 | 1566.1 | 62.1 | 0.671
323.15 K, m1 = 0.897 | 1011 | 1574.4 | 61.2 | 0.716
323.15 K, m1 = 1.164 | 1018 | 1583 | 60.5 | 0.755
323.15 K, m1 = 1.449 | 1024.3 | 1593.1 | 60.1 | 0.819
323.15 K, m1 = 1.748 | 1030.7 | 1601.3 | 59.7 | 0.908
323.15 K, m1 = 2.068 | 1037.1 | 1611.1 | 59.5 | 0.985
323.15 K, m1 = 2.412 | 1043.5 | 1620 | 59.2 | 1.131
323.15 K, m1 = 2.779 | 1050.1 | 1629.6 | 59 | 1.233
323.15 K, m1 = 3.181 | 1056.8 | 1639.4 | 58.9 | 1.387
323.15 K, m1 = 3.617 | 1063.5 | 1649.3 | 58.8 | 1.569
323.15 K, m1 = 4.088 | 1070.4 | 1659.4 | 58.7 | 1.77
323.15 K, m1 = 4.609 | 1077.3 | 1669.7 | 58.6 | 2.027
323.15 K, m1 = 5.155 | 1084.2 | 1680.2 | 58.6 | 2.327
